Measurements taken from patent US10675306B2, “Adrenomedullin therapy to improve fetal implantation” (The University of North Carolina at Chapel Hill, priority 2015, dated 2020).
Entries after “also recorded” stand apart in the source; their conditions may differ. Positions of bridges follow the written chain, without caps; N, C: chain ends. No end group written: not given here.

Assays:
Assay type in all cases: in vivo
wild-type mice [1] = assay: Rate of pinopode formation throughout a treatment time course; settings: AM 150 pmol, days 2.5-3.5 of pseudopregnancy, vs vehicle
Experimental: A, Scanning electron micrographs of vehicle- and AM-treated uteri throughout treatment time course. Scale bars, 1 μm. B, Quantitation of pinopodes per field throughout treatment time course. *p<0.05 at indicated time point, unpaired t test.
Further studies were performed to measure the effect of AM (150 pmol) on the rate of pinopode formation. The number of pinopodes was quantitated throughout a time course of AM treatment in wild-type mice (FIGS. 4A-4B).

wild-type mice [2] = assay: Pinopode formation and size in uteri treated for 30 min (scanning electron micrographs); settings: AM 150 pmol, vs vehicle
Experimental: A, Scanning electron micrographs of pinopodes in wild type uteri treated with vehicle, AM, or AM+AM(24-50) for 30 minutes. Scale bars, 5 μm. B-D, Quantitation of pinopodes per field (B), size (C), and percent area of field (D). n=3 animals, n>4 fields per animal. ***p<0.001, unpaired t test.
The effect of AM on pinopode formation and size was studied. Wild-type mice were treated with vehicle, AM (150 pmol), or AM (150 pmol)+AM(24-50) (2 nmol) for 30 min and the amount and size of pinopodes was quantitated (FIGS. 3A-3D).

BalbC mice = assay: Blastocyst transfer after intrauterine injection: number and spacing of viable implantation sites; settings: AM 150 pmol into lumen of each uterine horn, day 2.5 of pseudopregnancy, evaluated three days post-transfer, vs vehicle
From the text: A, Images of e6.5 embryos within uteri treated with vehicle, AM, or AM+AM(24-50) prior to transfer of 8 blastocysts per horn. Arrowheads indicate viable implantation sites as determined by uptake of Evans blue dye. Scale bar, 1 cm. B, Quantitation of viable implant sites per horn. ns, not significant. *p<0.05, Mann-Whitney test. C, Illustration of quantitation method for spacing of e6.5 embryos within uterine horns. SD, standard deviation. D, Quantitation of spacing using method depicted in (C). *p<0.05, unpaired t test.
It was hypothesized that administration of AM, an endocrine factor critical for a healthy pregnancy, to female mice would improve uterine receptivity and implantation rates. […] Dams were euthanized three days later, and the number and spacing of the viable implantation sites were evaluated.
Using this conceptually simple but elegant in vivo experiment, it was concluded that delivery of AM directly into the uterine lumen prior to the establishment of pregnancy promotes blastocyst implantation. This conclusion was arrived at by quantitating the number and spacing of viable implantation sites in uterine horns that were treated with either vehicle or AM prior to blastocyst transfer.

For “adrenomedullin (YRQSMNNFGGLRSFGCRFGTCTVQKLAHQIYQFTDKDKDNVAPRSKISPQGY; disulfide 16-21 (inferred); ends not checked; listed as Homo sapiens) [AM, peptide vasodilator]”, the “rate of pinopode formation (pinopodes per field over time course)” value (wild-type mice [1]) was “accelerates pinopode formation”, the “pinopode formation (pinopodes per field)” value (wild-type mice [2]) was “promotes pinopode formation” and the pinopode size (wild-type mice [2]) was “promotes pinopode formation and size”. For the same substance, the “number of viable implantation sites per horn” value (BalbC mice; 8 blastocysts per horn 5-10 min later) was “improves implantation success; also recorded: significantly more embryo implantation sites; also recorded: significantly more viable implantation sites” and the “spacing of viable implantation sites” value (BalbC mice; 8 blastocysts per horn) was “improves implantation success and spacing; also recorded: evenly distributed throughout the length of the horn; also recorded: more evenly distributed throughout the length of the horn”.
